Holding throughout (assay): NCI-60 cell line screen, 48 h
The subject of assay [1] is 786-0.
Assay [2] deals with A549.
The subject of assay [3] is DU-145.
The test system of assay [4] is HCT-116.
For assay [5], the system named is HOP-92.
The subject of assay [6] is IGROV-1.
Assay [7] concerns M14.
The subject of assay [8] is M19-MEL.
In assay [9] the test system is MCF7.
Assay [10] relates to MDA-MB-435.
The subject of assay [11] is MOLT-4.
In assay [12] the test system is OVCAR-5.
Assay [13] has as its system OVCAR-8.
The test system of assay [14] is PC-3.
In assay [15] the test system is RPMI-8226.
Assay [16] relates to SF-268.
Assay [17] has as its system SF-295.
Assay [18] relates to U-251.
Assay [19] concerns UO-31.
Assay [20] concerns NCI/ADR-RES.

These results are taken from ChEMBL document CHEMBL1201862, “PubChem BioAssay data set” (2004).

Molecules are shown by their SMILES.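 48-hour exposure; five concentrations; linearly interpolated endpoints. Abbreviation: GI50, concentration required for 50% inhibition of growth.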 Active and inactive are the calls of the source. Rule as the data show it: active = GI50 up to about 1.1 µM and inactive = higher.

As for `Cc1cccc(C)c1NC(=O)/C(Cl)=C(/Cl)C(=O)O`, the GI50 in [1] is 17.1 µM (inactive); in assay [2] it was 20.7 µM (inactive); in assay [3], 26.5 µM (inactive); in [4] it was 21.1 µM (inactive); in [5], 15.5 µM (inactive); in assay [6], 20.8 µM (inactive). Also, the GI50 in [7] is 9.29 µM (inactive); in assay [8], 19.9 µM (inactive); in [9], 20.8 µM (inactive); in assay [10], 21.9 µM (inactive); in assay [11], 3.99 µM (inactive); in assay [12], 20.4 µM (inactive). The GI50 in [13] is 20.2 µM (inactive); in [14] it was 19.8 µM (inactive); in assay [15], 11 µM (inactive); in [16], 17.2 µM (inactive); in assay [17] it was 29.2 µM (inactive); in [18], 21.1 µM (inactive). For the same compound, the GI50 in assay [19] was 14.8 µM (inactive).
For the compound `CC1OC(OC2C[C@](O)(C(=O)CF)Cc3c(O)c4c(c(O)c32)C(=O)c2ccccc2C4=O)CC(N)C1O` (some centres not stated), the GI50 is < 0.01 µM (active) in assay [1]; < 0.01 µM (active) in assay [2]; < 0.01 µM (active) in assay [3]; < 0.01 µM (active) in [4]; 0.0483 µM (active) in assay [5]; 0.0877 µM (active) in assay [6]. Also, the GI50 in assay [7] was 0.0263 µM (active); in assay [8] it was 0.0178 µM (active); in [9], < 0.01 µM (active); in assay [10], 0.0746 µM (active); in assay [11], < 0.01 µM (active); in assay [12], 0.0719 µM (active). Besides, the GI50 in [13] is 0.0115 µM (active); in [14], 0.0275 µM (active); in assay [15], < 0.01 µM (active); in assay [16], 0.0255 µM (active); in assay [17] it was < 0.01 µM (active); in assay [18], < 0.013 µM (active). Also, the GI50 in [19] is 0.0392 µM (active).
For the compound `NC(=O)NO` [HYDROXYUREA], the GI50 is 303 µM (inactive) in [1]; 514 µM (inactive) in [2]; 818 µM (inactive) in assay [3]; 995 µM (inactive) in [4]; 895 µM (inactive) in [5]; 1110 µM (inactive) in [6]. In addition, the GI50 is 597 µM (inactive) in [7]; 1420 µM (inactive) in assay [8]; 385 µM (inactive) in [9]; 2000 µM (inactive) in [10]; 222 µM (inactive) in assay [11]; 390 µM (inactive) in [20]. Moreover, the GI50 in [12] was 601 µM (inactive); in [13] it was 504 µM (inactive); in [14], 1010 µM (inactive); in [15], 277 µM (inactive); in assay [16] it was 524 µM (inactive); in [17], 313 µM (inactive). Besides, the GI50 in assay [18] is 581 µM (inactive); in assay [19], 508 µM (inactive).
As to `Clc1ccc2ns[s+]c2c1`, the GI50 in assay [1] is 53.8 µM (inactive); in [2], 5.24 µM (inactive); in [3], 8.79 µM (inactive); in [4] it was 1.03 µM (active); in assay [5], 22.5 µM (inactive); in [6], 40.3 µM (inactive). Also, the GI50 was 0.222 µM (active) in assay [7]; 1.97 µM (inactive) in [8]; 3.33 µM (inactive) in assay [9]; 0.334 µM (active) in assay [10]; 1.71 µM (inactive) in [11]; 6.58 µM (inactive) in assay [12]. The GI50 was 20.4 µM (inactive) in assay [13]; 0.847 µM (active) in assay [14]; 1.81 µM (inactive) in assay [15]; 11.3 µM (inactive) in [16]; 0.853 µM (active) in assay [17]; 18.3 µM (inactive) in [18]. Moreover, in [19], the GI50 is 6.44 µM (inactive).
With `COc1ccccc1NC(=O)CC(=O)N/N=C/c1ccc(N(CCC#N)S(=O)(=O)c2ccccc2)cc1`, the GI50 in [1], in assay [2], in assay [4], in [5], in assay [6] and in assay [7] was > 100 µM (inactive) each time. For the same compound, the GI50 in assay [8], in [11], in assay [12], in assay [13], in assay [15] and in assay [16] was > 100 µM (inactive) throughout. Moreover, the GI50 in assay [17], in [18] and in assay [19] was > 100 µM (inactive) each time.
In the case of `COC(=O)C1=Cc2c(cc(OC)c(OC)c2OC)[C@H](c2ccc(OC)c(OC)c2OC)C1C(=O)OC` (some centres not stated), the GI50 is > 100 µM (inactive) in [1]; > 100 µM (inactive) in assay [2]; 92.3 µM (inactive) in assay [4]; 17.4 µM (inactive) in assay [5]; > 100 µM (inactive) in [6]; > 100 µM (inactive) in assay [7]. Further, the GI50 in [8] is > 100 µM (inactive); in [11], 83 µM (inactive); in assay [12] it was > 100 µM (inactive); in [13] it was > 100 µM (inactive); in assay [15], 89.5 µM (inactive); in assay [16], > 100 µM (inactive). The GI50 in [17] is 65.9 µM (inactive); in assay [18], > 100 µM (inactive); in assay [19], 47.1 µM (inactive).
As for `CN(C(=O)c1ccc(Cl)cc1)C(=S)N1CCN(c2ccccn2)CC1`, the GI50 in assay [1] is > 100 µM (inactive); in [2] it was > 100 µM (inactive); in [4], > 100 µM (inactive); in assay [5] it was 35.6 µM (inactive); in assay [6], > 100 µM (inactive); in assay [7], > 100 µM (inactive). Besides, the GI50 in assay [8], in assay [11], in [12], in assay [13], in assay [15] and in assay [16] was > 100 µM (inactive) throughout. Moreover, the GI50 in assay [17], in [18] and in assay [19] was > 100 µM (inactive) in each case.
In the case of `COc1cccc(/C(C=O)=C(\Cl)c2ccc(OC)c(OC)c2)c1`, the GI50 was 16.1 µM (inactive) in assay [1]; 19.5 µM (inactive) in assay [2]; 10.6 µM (inactive) in [4]; 20.6 µM (inactive) in [5]; 21.1 µM (inactive) in [6]; 17.6 µM (inactive) in assay [7]. The GI50 in [8] was 11.3 µM (inactive); in assay [11], 13.2 µM (inactive); in assay [12], 19 µM (inactive); in [13], 13.8 µM (inactive); in assay [15], 11.5 µM (inactive); in assay [16], 11.7 µM (inactive). The GI50 in assay [17] is 15.2 µM (inactive); in assay [18], 13.9 µM (inactive); in assay [19] it was 14.5 µM (inactive).
